Target: T1, human PPARγ (Homo sapiens, UniProt P37231)
T1 construct: 1.6 kb of fragment of the prepared plasmid pGEMT-hPPARg2 including human PPARγ gene; expressed in transfected cells; host or cells: CV-1 cells, transient transfection with pCI-hPPARg2, pCI-hRXRa and the reporter pGL3-PPRE3-TK
T1 sequence (P37231 1-505): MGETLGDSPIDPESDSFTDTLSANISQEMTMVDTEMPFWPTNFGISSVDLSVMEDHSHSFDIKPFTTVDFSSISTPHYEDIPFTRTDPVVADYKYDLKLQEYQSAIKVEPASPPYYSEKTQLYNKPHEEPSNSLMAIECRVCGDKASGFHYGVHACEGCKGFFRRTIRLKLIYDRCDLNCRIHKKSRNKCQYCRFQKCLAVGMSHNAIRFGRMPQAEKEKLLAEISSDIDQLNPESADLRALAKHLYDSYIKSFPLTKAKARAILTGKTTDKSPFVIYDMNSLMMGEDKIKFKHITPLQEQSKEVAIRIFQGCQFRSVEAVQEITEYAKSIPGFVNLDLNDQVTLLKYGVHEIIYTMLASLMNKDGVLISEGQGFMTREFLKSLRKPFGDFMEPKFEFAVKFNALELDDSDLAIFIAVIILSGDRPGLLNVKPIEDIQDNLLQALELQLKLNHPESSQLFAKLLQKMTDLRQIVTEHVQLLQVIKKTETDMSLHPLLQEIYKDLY
T1 sequence (P19793 1-462 partner): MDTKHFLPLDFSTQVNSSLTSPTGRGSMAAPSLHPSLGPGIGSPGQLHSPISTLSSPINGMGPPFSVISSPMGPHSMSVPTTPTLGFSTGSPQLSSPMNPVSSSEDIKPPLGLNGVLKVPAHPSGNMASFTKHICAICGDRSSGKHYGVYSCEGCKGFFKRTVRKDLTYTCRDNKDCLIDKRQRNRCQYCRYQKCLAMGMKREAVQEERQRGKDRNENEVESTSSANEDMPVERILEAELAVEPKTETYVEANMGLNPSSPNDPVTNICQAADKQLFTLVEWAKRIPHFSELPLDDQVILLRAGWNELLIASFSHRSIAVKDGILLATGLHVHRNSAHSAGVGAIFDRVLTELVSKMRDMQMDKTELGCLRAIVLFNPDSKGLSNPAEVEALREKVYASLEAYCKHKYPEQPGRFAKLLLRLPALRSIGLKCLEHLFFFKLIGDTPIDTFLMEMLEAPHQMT
Test: Human PPARγ antagonist assay (luciferase reporter in transfected CV-1 cells)
Format: cell-based
Details: CV-1 cells expressing human PPARγ and RXRα with reporter plasmid; pioglitazone 1 μM as stimulant; 24 hours; read-out: Human PPARγ antagonist activities, Inhibition IC50
Method in brief: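 CV-1 cells transiently co-transfected with human PPARγ2, RXRα, PPRE3-TK firefly luciferase and renilla plasmids were exposed 24 h at 37 °C to compound (10 nM–3 μM) plus 1 μM pioglitazone. Firefly/renilla ratios were scaled between pioglitazone alone (0%) and no addition (100%), and IC50 was taken at 50% inhibition.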

IC50: 5.14 µM
Structure (SMILES): COc1cc(Cn2c3ccccc3c3c(OC(C)(C)C(=O)O)cccc32)ccc1OCc1nc(-c2ccncc2)oc1C [Example 9, 2-{9-[3-methoxy-4-((5-methyl-2-(pyridine-4-yl)-oxazole-4-yl)methoxy)-benzyl]-9H-carbazole-4-yloxy}-2-methyl-propionic acid]
